Experimental data: ChEMBL document CHEMBL1122531 (J Med Chem, 1984)

Experiments:
[1] = system: Oryctolagus cuniculus; experiment: Compound was evaluated in vivo for the respiratory activity in four conscious rabbits. The percent change in respiration rate in comparison to the 10-minute period prior to the injection, dose 0.005 g/uM; type: functional
[2] = molecular target: T1, Opioid receptor (Rattus norvegicus, UniProt P33533+P34975+P33535); type: cell membranes, Brain, Membrane
[3] = system: Mus musculus; experiment: Compound was evaluated in vivo for its effective dose at which half of the mice were effected using hotplate assay (HPA) by administering the compound perorally (po).; type: functional
[4] = molecular target: T1, Opioid receptor; type: cell membranes, Brain, Membrane; remark: listed apart in the source
[5] = system: Mus musculus; experiment: Compound was evaluated in vivo for its effective dose at which half of the mice were effected using Nilsen assay (NA) by administering the compound perorally (po).; type: functional
[6] = system: Oryctolagus cuniculus; experiment: Compound was evaluated in vivo for the respiratory activity in four conscious rabbits. The percent change of the respiratory volume in comparison to the 10-minute prior to the injection, dose 0.005 g/uM; type: functional
[7] = system: Mus musculus; experiment: Compound was evaluated in vivo for its effective dose at which half of the mice were effected using Nilsen assay (NA) by administering the compound Subcutaneously; type: functional; conditions: sc
[8] = system: Mus musculus; experiment: In vivo inhibition of subcutaneously administered naloxone-elicited opioid type withdrawal jumping (IWJ) after 72 hours in physically dependent male mice (strain Fullinsdorf-Albino SPF). Dose 0.005 g/uM; type: functional; conditions: sc
[9] = system: Mus musculus; experiment: Compound was evaluated in vivo for its effective dose at which half of the mice were effected using hotplate assay (HPA) by administering the compound subcutaneously.; type: functional; conditions: sc
[10] = system: Mus musculus; experiment: In vivo inhibition of subcutaneously administered naloxone-elicited opioid type withdrawal jumping (IWJ) after 72 hours in physically dependent male mice (strain Fullinsdorf-Albino SPF). Dose 0.41 g/uM; type: functional; conditions: sc
[11] = system: Oryctolagus cuniculus; experiment: Compound was evaluated in vivo for the respiratory activity in four conscious rabbits. The percent change of the respiratory volume in comparison to the 10-minute prior to the injection, dose 0.41 g/uM; type: functional
[12] = system: Oryctolagus cuniculus; experiment: Compound was evaluated in vivo for the respiratory activity in four conscious rabbits. The percent change in respiration rate in comparison to the 10-minute period prior to the injection, dose 0.41 g/uM; type: functional
[13] = system: Mus musculus; experiment: Compound was evaluated in vivo for its effective dose at which half of the mice were effected using hotplate assay (HPA) by administering the compound perorally (po); type: functional
[14] = system: Mus musculus; experiment: Compound was evaluated in vivo for its effective dose at which half of the mice were effected using hotplate assay (HPA) by administering the compound subcutaneously; type: functional; conditions: sc
[15] = system: Oryctolagus cuniculus; experiment: Compound was evaluated in vivo for the respiratory activity in four conscious rabbits. The percent change in respiration rate in comparison to the 10-minute period prior to the injection, dose 0.08 kg/uM; type: functional
[16] = system: Mus musculus; experiment: In vivo inhibition of subcutaneously administered naloxone-elicited opioid type withdrawal jumping (IWJ) after 72 hours in physically dependent male mice (strain Fullinsdorf-Albino SPF), dose 0.08 kg/uM; type: functional; conditions: sc
[17] = system: Oryctolagus cuniculus; experiment: Compound was evaluated in vivo for the respiratory activity in four conscious rabbits. The percent change of the respiratory volume in comparison to the 10-minute prior to the injection, dose 0.08 kg/uM; type: functional
[18] = system: Mus musculus; experiment: Compound was evaluated in vivo for its effective dose at which half of the mice were effected using Nilsen assay (NA) by administering the compound perorally (po); type: functional
[19] = system: Oryctolagus cuniculus; experiment: Compound was evaluated in vivo for the respiratory activity in four conscious rabbits. The percent change in respiration rate in comparison to the 10-minute period prior to the injection, dose 0.17 kg/uM; type: functional
[20] = system: Oryctolagus cuniculus; experiment: Compound was evaluated in vivo for the respiratory activity in four conscious rabbits. The percent change of the respiratory volume in comparison to the 10-minute prior to the injection, dose 0.17 kg/uM; type: functional
[21] = system: Mus musculus; experiment: In vivo inhibition of subcutaneously administered naloxone-elicited opioid type withdrawal jumping (IWJ) after 72 hours in physically dependent male mice (strain Fullinsdorf-Albino SPF), dose 0.17 kg/uM; type: functional; conditions: sc
[22] = system: Oryctolagus cuniculus; experiment: Compound was evaluated in vivo for the respiratory activity in four conscious rabbits. The percent change in respiration rate in comparison to the 10-minute period prior to the injection, dose 0.017 g/uM; type: functional
[23] = system: Mus musculus; experiment: In vivo inhibition of subcutaneously administered naloxone-elicited opioid type withdrawal jumping (IWJ) after 72 hours in physically dependent male mice (strain Fullinsdorf-Albino SPF), dose 0.017 g/uM; type: functional; conditions: sc
[24] = system: Oryctolagus cuniculus; experiment: Compound was evaluated in vivo for the respiratory activity in four conscious rabbits. The percent change of the respiratory volume in comparison to the 10-minute prior to the injection, dose 0.017 g/uM; type: functional
[25] = system: Oryctolagus cuniculus; experiment: Compound was evaluated in vivo for the respiratory activity in four conscious rabbits. The percent change of the respiratory volume in comparison to the 10-minute prior to the injection, dose 0.67 kg/uM; type: functional
[26] = system: Mus musculus; experiment: In vivo inhibition of subcutaneously administered naloxone-elicited opioid type withdrawal jumping (IWJ) after 72 hours in physically dependent male mice (strain Fullinsdorf-Albino SPF).; type: functional; conditions: sc
[27] = system: Oryctolagus cuniculus; experiment: Compound was evaluated in vivo for the respiratory activity in four conscious rabbits. The percent change in respiration rate in comparison to the 10-minute period prior to the injection, dose 0.67 kg/uM; type: functional
[28] = system: Mus musculus; experiment: In vivo inhibition of subcutaneously administered naloxone-elicited opioid type withdrawal jumping (IWJ) after 72 hours in physically dependent male mice (strain Fullinsdorf-Albino SPF), dose 0.18 kg/uM; type: functional; conditions: sc
[29] = system: Oryctolagus cuniculus; experiment: Compound was evaluated in vivo for the respiratory activity in four conscious rabbits. The percent change of the respiratory volume in comparison to the 10-minute prior to the injection, dose 0.18 kg/uM; type: functional
[30] = system: Oryctolagus cuniculus; experiment: Compound was evaluated in vivo for the respiratory activity in four conscious rabbits. The percent change in respiration rate in comparison to the 10-minute period prior to the injection, dose 0.18 kg/uM; type: functional
[31] = system: Oryctolagus cuniculus; experiment: Compound was evaluated in vivo for the respiratory activity in four conscious rabbits. The percent change in respiration rate in comparison to the 10-minute period prior to the injection, dose 0.03 kg/uM; type: functional
[32] = system: Oryctolagus cuniculus; experiment: Compound was evaluated in vivo for the respiratory activity in four conscious rabbits. The percent change of the respiratory volume in comparison to the 10-minute prior to the injection, dose 0.03 kg/uM; type: functional
[33] = organism: Mus musculus; experiment: animal or person; conditions: sc, 72 h

`Br.CO[C@@]12CCC(=O)[C@@H]3Oc4c(O)ccc5c4[C@@]31CCN(C)C2C5` showed a Change [1] of -33%, an IC50 [2] of 0.003 nM and an ED50 [3] of 0.5 µmol/kg. The IC50 [4] was 0.08 nM, the ED50 [5] was 0.5 µmol/kg and the Change [6] was -26%. It also gave an ED50 [7] of 0.02 µmol/kg, an ED50 [8] of 0.08 µmol/kg and an ED50 [9] of 0.008 µmol/kg.
In the case of `Br.CO[C@@]12CCC(=O)[C@@H]3Oc4c(OCc5ccccc5)ccc5c4[C@@]31CCN(C)C2C5`, the ED50 [10] is reported as 5.3 µmol/kg, the IC50 [2] is reported as 0.8 nM and the IC50 [4] is reported as 9 nM. For the same molecule, the Change [11] was -32%, the Change [12] was -38% and the ED50 [9] was 2.7 µmol/kg.
`CN1CC[C@]23CC(=O)CC[C@@]2(O)[C@H]1Cc1cccc(O)c13` was tested, and the ED50 [13] was 3.5 µmol/kg, the IC50 [2] was 0.2 nM and the IC50 [4] was 3.4 nM. For the same molecule, the ED50 [14] was 2 µmol/kg.
`COc1cccc2c1[C@]13CCN(C)[C@H](C2)[C@]1(OC)CCC(=O)C3` showed a Change [15] of -66 µM/kg, an ED50 [13] of 1.1 µmol/kg and an ED50 [16] of 2.4 µmol/kg. It also gave an IC50 [2] of 0.3 nM, an IC50 [4] of 3.5 nM and a Change [17] of -64%. For the same molecule, the ED50 [7] was 0.06 µmol/kg, the ED50 [18] was 1.6 µmol/kg and the ED50 [14] was 0.06 µmol/kg.
With `COc1ccc2c(c1O)[C@]13CCN(C)[C@H](C2)[C@]1(OC)CCC(=O)C3` the ED50 [13] was 2.4 µmol/kg, the IC50 [2] was 0.5 nM and the IC50 [4] was 11 nM. For the same molecule, the ED50 [7] was 0.5 µmol/kg, the ED50 [18] was 5.4 µmol/kg and the ED50 [14] was 0.8 µmol/kg.
`CO[C@@]12CCC(=O)C[C@@]13CCN(C)[C@@H]2Cc1cccc(O)c13` gave a Change [19] of -32%, a Change [20] of -40% and an ED50 [13] of 1.2 µmol/kg. The IC50 [2] was 0.02 nM, the IC50 [4] was 0.7 nM and the ED50 [21] was 2.9 µmol/kg. For the same molecule, the ED50 [7] was 0.4 µmol/kg, the ED50 [18] was 1 µmol/kg and the ED50 [14] was 0.5 µmol/kg.
`COc1ccc2c(c1OC)[C@]13CCN(C)[C@H](C2)[C@]1(OC)CCC(=O)C3` was tested, and the Change [22] was -50%, the ED50 [13] was 0.3 µmol/kg and the IC50 [2] was 0.085 nM. It also gave an ED50 [23] of 1.6 µmol/kg, a Change [24] of -48% and an IC50 [4] of 0.85 nM. The ED50 [7] was 0.05 µmol/kg, the ED50 [18] was 0.6 µmol/kg and the ED50 [14] was 0.06 µmol/kg.
Work on `COc1ccc2c(c1OC)[C@]13CCN(C)[C@H](C2)[C@]1(O)CCC(=O)C3` yielded an IC50 [2] of 0.5 nM, an IC50 [4] of 1.2 nM and an ED50 [7] of 0.3 µmol/kg. It also gave an ED50 [14] of 0.4 µmol/kg.
`CN1CC[C@]23CC(=O)CC[C@@]2(O)[C@H]1Cc1ccccc13` showed an IC50 [2] of 0.3 nM, an IC50 [4] of 12 nM and an ED50 [7] of 2 µmol/kg. The ED50 [14] was 1.8 µmol/kg.
For `CO[C@@]12CCC(=O)[C@@H]3Oc4cccc5c4[C@@]31CCN(C)[C@@H]2C5`, the IC50 [2] was 0.2 nM, the Change [25] was -68% and the ED50 [3] was 2.8 µmol/kg. It also gave an IC50 [4] of 16 nM, an ED50 [26] of 14 µmol/kg and an ED50 [5] of 4.7 µmol/kg. For the same molecule, the Change [27] was -75%, the ED50 [7] was 0.3 µmol/kg and the ED50 [9] was 0.3 µmol/kg.
For `CN1CC[C@]23c4c5cccc4O[C@H]2C(=O)CC[C@@]3(O)[C@H]1C5`, the IC50 [2] was 1.4 nM, the ED50 [3] was 31 µmol/kg and the IC50 [4] was 16 nM. For the same molecule, the ED50 [9] was 1.6 µmol/kg.
For `COc1cccc2c1[C@]13CCN(C)[C@H](C2)[C@]1(O)CCC(=O)C3`, the ED50 [13] was 5 µmol/kg, the IC50 [2] was 0.75 nM and the IC50 [4] was 3.7 nM. For the same molecule, the ED50 [14] was 0.5 µmol/kg.
`CO[C@@]12CCC(=O)C[C@@]13CCN(C)[C@@H]2Cc1ccccc13` was tested, and the ED50 [28] was 7 µmol/kg, the Change [29] was -48% and the ED50 [13] was 2.2 µmol/kg. It also gave a Change [30] of -52%, an IC50 [2] of 0.2 nM and an IC50 [4] of 6 nM. The ED50 [7] was 0.2 µmol/kg, the ED50 [18] was 2.3 µmol/kg and the ED50 [14] was 0.1 µmol/kg.
`CN1CC[C@]23c4c5ccc(O)c4O[C@H]2[C@@H](O)C=C[C@H]3[C@H]1C5.Cl` [MORPHINE HYDROCHLORIDE] gave a Change [31] of -43%, a Change [32] of 38.3% and an ED50 [33] of 59 µmol/kg.
Molecule `CN1CC[C@]23c4c5ccc(O)c4O[C@H]2C(=O)CC[C@@]3(O)[C@H]1C5` [OXYMORPHONE] has an ED50 [3] of 3 µmol/kg and an ED50 [9] of 0.3 µmol/kg.
